From article PMC9743094, “Synthesis and Evaluation of Polymyxins Bearing Reductively Labile Disulfide-Linked Lipids” (Journal of Medicinal Chemistry, 2022)
Converted amounts (≈) assume the structure as drawn. Positions of bridges follow the written chain, without caps; N, C: chain ends. Non-standard residues stand in square brackets, D forms with d. Residues, ends and D or L forms follow the SMILES beside them. *: point of attachment. S(2-cyclohexylethyl) = C1CCC(CCS*)CC1; S(3-Cl-benzyl) = Clc1cccc(CS*)c1; X3 = c1ccc(Oc2ccc(CS*)cc2)cc1; X5 = c1ccc(-c2ccc(CS*)cc2)cc1; Dab = NCC[C@H](N)C(=O)O; X1 = CC(C)CCCCS*; X4 = CCCCCCS*

Legend:
[1] = system: A. baumannii (ATCC 19606); assay type: cell-based; details: ATCC 19606
Method: (§1) Minimum inhibitory concentrations (MICs) on relevant Gram-negative bacteria were determined by broth microdilution, in accordance with CLSI guidelines. Indicated bacteria were taken from glycerol stocks and incubated overnight on blood agar at 37 °C. Well-isolated colonies were taken, suspended in TSB (5 mL), and grown to an OD600 of 0.5. Compounds to be tested were dissolved in DMSO (6.4 mg/mL), diluted in cation-adjusted Mueller–Hinton Broth (CAMHB) (12.5 and 20 μg/mL Mg^2+ and Ca^2+, respectively), and diluted serially on polypropylene microtiter plates. To the diluted compounds (50 μL per well) was added 50 μL of relevant bacterial suspension, to yield a final concentration of 10^6 CFU/mL. Plates were covered by adhesive gas-permeable membranes and incubated at 37 °C. MIC was read out as the lowest concentration that inhibited visual bacterial growth. Shown values are consistent results from at least duplicate experiments.

[2] = system: E. coli (ATCC 25922); assay type: cell-based; details: ATCC 25922
Method: as §1

[3] = system: P. aeruginosa (ATCC 27853); assay type: cell-based; details: ATCC 27853
Method: as §1

[4] = system: K. pneumoniae (ATCC 13883); assay type: cell-based; details: ATCC 13883
Method: as §1

[5] = system: differentiated conditionally immortalized PTECs (ciPTECs, OAT-1); experiment: ciPTEC toxicity assay (PrestoBlue); assay type: cell-based, human
Method: ciPTECs (OAT-1) cells,[52],[53] grown to 90–100% confluence, were washed by Hanks’ balanced salt solution (HBSS; Gibco, Life Technologies, Paisley, U.K.) and detached by accutase (4 mL) for 5 min at 37 °C. The cells were then suspended in fresh medium (DMEM/F-12, supplemented with 10% fetal calf serum, insulin (5 μg/mL), transferrin (5 μg/mL), selenium (5 μg/mL) hydrocortisone (35 ng/mL), Epidermal Growth Factor (10 ng/mL) and tri-iodothyronine (40 pg/mL)). Cell density was adjusted to 2.0 × 10^5 cells/mL, of which 100 μL was added to each well of a 96-well plate. The cells were incubated for 24 h at 33 °C, followed by 6 days at 37 °C, in a humidified atmosphere containing 5% (v/v) CO2. The medium was refreshed every second or third day.
Compounds were dissolved and serially diluted in serum-free medium. Differentiated cells were washed once with HBSS and serially diluted compounds (80 μL/well) were transferred to the ciPTEC-containing plate. Compounds were incubated for 24 h at 37 °C; the cells were washed by HBSS, followed by incubation with 10% PrestoBlue cell viability reagent (Thermo Scientific, Vienna, Austria) in HBSS at 37 °C in the dark. Fluorescence was recorded (excitation: 530 nm, emission: 590 nm). Raw data are corrected for PrestoBlue background fluorescence and reported relative to the no-treatment control (cells with medium only). Viability data were fitted with GraphPad Prism software (version 5.03; GraphPad Software, La Jolla, CA), by nonlinear regression with 0 as bottom constraint. Presented data are based on triplicates.
Toxicity assessment on PTECs
Table S1. TC50 values for polymyxin analogues. Toxicity assessment on proximal tubular epithelial cells
performed using PrestoBlue™ assay. TC50 values are derived after non-linear regression analysis on cell viability
correspond to data obtained from 2 different batches of cells/analyses on different days. As the value for
polymyxin B differs 2-fold, values in the manuscript are presented relative to the polymyxin B value.
Compound TC50 (µ M) Compound TC50 (µ M)
Polymyxin B 80 Polymyxin B 41
Figure S3. Representative traces of ciPTECs’ viability after incubation with analogues for 24 hours. Shown data are based on […]

| SMILES | MIC A. baumannii (ATCC 19606) [1] [µg/mL] | MIC E. coli (ATCC 25922) [2] [µg/mL] | MIC P. aeruginosa (ATCC 27853) [3] [µg/mL] | MIC K. pneumoniae (ATCC 13883) [4] [µg/mL] | TC50, Day 2 [5] [µM] | TC50, Day 1 [5] [µM] | ciPTEC Toxicity Index (relative to polymyxin B) [5] |
| --- | --- | --- | --- | --- | --- | --- | --- |
| CC(C)C[C@@H]1NC(=O)[C@@H](Cc2ccccc2)NC(=O)[C@H](CCN)NC(=O)[C@@H](NC(=O)[C@H](CCN)NC(=O)[C@@H](NC(=O)[C@@H](CSSCCC2CCCCC2)NC(=O)CN)[C@@H](C)O)CCNC(=O)[C@H]([C@@H](C)O)NC(=O)[C@H](CCN)NC(=O)[C@H](CCN)NC1=O [Compound 23b] (H-G[dC](S(2-cyclohexylethyl))T[Dab][Dab][Dab][dF]L[Dab][Dab]T; lactam 5-C) | 1 (≈ 0.79 µM) | 2 (≈ 1.58 µM) | 1 (≈ 0.79 µM) | 1 (≈ 0.79 µM) | 58 | – | – |
| CCCCCCSSC[C@H](N)C(=O)N[C@H](C(=O)N[C@@H](CCN)C(=O)N[C@H]1CCNC(=O)[C@H]([C@@H](C)O)NC(=O)[C@H](CCN)NC(=O)[C@H](CCN)NC(=O)[C@H](CC(C)C)NC(=O)[C@@H](Cc2ccccc2)NC(=O)[C@H](CCN)NC1=O)[C@@H](C)O [Compound 17a] (H-C(X4)T[Dab][Dab][Dab][dF]L[Dab][Dab]T; lactam 4-C) | >32 | 8 (≈ 6.77 µM) | 2 (≈ 1.69 µM) | 4 (≈ 3.38 µM) | – | 421 | 5.3 |
| CC(C)C[C@@H]1NC(=O)[C@@H](Cc2ccccc2)NC(=O)[C@H](CCN)NC(=O)[C@@H](NC(=O)[C@H](CCN)NC(=O)[C@@H](NC(=O)[C@H](N)CSSCc2cccc(Cl)c2)[C@@H](C)O)CCNC(=O)[C@H]([C@@H](C)O)NC(=O)[C@H](CCN)NC(=O)[C@H](CCN)NC1=O [Compound 38] (H-[dC](S(3-Cl-benzyl))T[Dab][Dab][Dab][dF]L[Dab][Dab]T; lactam 4-C) | 1 (≈ 0.818 µM) | 1 (≈ 0.818 µM) | 4 (≈ 3.27 µM) | 0.5 (≈ 0.409 µM) | 74 | – | – |
| CC(C)C[C@@H]1NC(=O)[C@@H](Cc2ccccc2)NC(=O)[C@H](CCN)NC(=O)[C@@H](NC(=O)[C@H](CCN)NC(=O)[C@@H](NC(=O)[C@H](N)CSSCc2ccc(Oc3ccccc3)cc2)[C@@H](C)O)CCNC(=O)[C@H]([C@@H](C)O)NC(=O)[C@H](CCN)NC(=O)[C@H](CCN)NC1=O [Compound 37] (H-[dC](X3)T[Dab][Dab][Dab][dF]L[Dab][Dab]T; lactam 4-C) | 1 (≈ 0.781 µM) | 4 (≈ 3.12 µM) | 4 (≈ 3.12 µM) | 1 (≈ 0.781 µM) | 72 | – | 1.8 |
| CC(C)CCCCSSC[C@@H](N)C(=O)N[C@H](C(=O)N[C@@H](CCN)C(=O)N[C@H]1CCNC(=O)[C@H]([C@@H](C)O)NC(=O)[C@H](CCN)NC(=O)[C@H](CCN)NC(=O)[C@H](CC(C)C)NC(=O)[C@@H](Cc2ccccc2)NC(=O)[C@H](CCN)NC1=O)[C@@H](C)O [Compound 20b] (H-[dC](X1)T[Dab][Dab][Dab][dF]L[Dab][Dab]T; lactam 4-C) | 2 (≈ 1.67 µM) | 4 (≈ 3.34 µM) | 16 (≈ 13.4 µM) | 2 (≈ 1.67 µM) | 135 | – | 3.3 |
| CCCCCCSSC[C@@H](N)C(=O)N[C@H](C(=O)N[C@@H](CCN)C(=O)N[C@H]1CCNC(=O)[C@H]([C@@H](C)O)NC(=O)[C@H](CCN)NC(=O)[C@H](CCN)NC(=O)[C@H](CC(C)C)NC(=O)[C@@H](Cc2ccccc2)NC(=O)[C@H](CCN)NC1=O)[C@@H](C)O [Compound 17b] (H-[dC](X4)T[Dab][Dab][Dab][dF]L[Dab][Dab]T; lactam 4-C) | 1 (≈ 0.846 µM) | 2 (≈ 1.69 µM) | 2 (≈ 1.69 µM) | 0.5 (≈ 0.423 µM) | – | 240 | 3.0 |
| CC(C)CCCCSSC[C@@H](NC(=O)CN)C(=O)N[C@H](C(=O)N[C@@H](CCN)C(=O)N[C@H]1CCNC(=O)[C@H]([C@@H](C)O)NC(=O)[C@H](CCN)NC(=O)[C@H](CCN)NC(=O)[C@H](CC(C)C)NC(=O)[C@@H](Cc2ccccc2)NC(=O)[C@H](CCN)NC1=O)[C@@H](C)O [Compound 24b] (H-G[dC](X1)T[Dab][Dab][Dab][dF]L[Dab][Dab]T; lactam 5-C) | 1 (≈ 0.798 µM) | 2 (≈ 1.6 µM) | 2 (≈ 1.6 µM) | 1 (≈ 0.798 µM) | 63 | – | – |
| CC(C)C[C@@H]1NC(=O)[C@@H](Cc2ccccc2)NC(=O)[C@H](CCN)NC(=O)[C@@H](NC(=O)[C@H](CCN)NC(=O)[C@@H](NC(=O)[C@H](N)CSSCCC2CCCCC2)[C@@H](C)O)CCNC(=O)[C@H]([C@@H](C)O)NC(=O)[C@H](CCN)NC(=O)[C@H](CCN)NC1=O [Compound 19b] (H-[dC](S(2-cyclohexylethyl))T[Dab][Dab][Dab][dF]L[Dab][Dab]T; lactam 4-C) | 1 (≈ 0.827 µM) | 1 (≈ 0.827 µM) | 2 (≈ 1.65 µM) | 1 (≈ 0.827 µM) | 51 | – | – |
| CC(C)C[C@@H]1NC(=O)[C@@H](Cc2ccccc2)NC(=O)[C@H](CCN)NC(=O)[C@@H](NC(=O)[C@H](CCN)NC(=O)[C@@H](NC(=O)[C@H](N)CSSCc2ccc(-c3ccccc3)cc2)[C@@H](C)O)CCNC(=O)[C@H]([C@@H](C)O)NC(=O)[C@H](CCN)NC(=O)[C@H](CCN)NC1=O [Compound 36] (H-[dC](X5)T[Dab][Dab][Dab][dF]L[Dab][Dab]T; lactam 4-C) | 1 (≈ 0.791 µM) | 4 (≈ 3.16 µM) | 2 (≈ 1.58 µM) | 1 (≈ 0.791 µM) | 68 | – | 1.7 |
| CC(C)CCCCSSC[C@H](N)C(=O)N[C@H](C(=O)N[C@@H](CCN)C(=O)N[C@H]1CCNC(=O)[C@H]([C@@H](C)O)NC(=O)[C@H](CCN)NC(=O)[C@H](CCN)NC(=O)[C@H](CC(C)C)NC(=O)[C@@H](Cc2ccccc2)NC(=O)[C@H](CCN)NC1=O)[C@@H](C)O [Compound 20a] (H-C(X1)T[Dab][Dab][Dab][dF]L[Dab][Dab]T; lactam 4-C) | 4 (≈ 3.34 µM) | 2 (≈ 1.67 µM) | 2 (≈ 1.67 µM) | 1 (≈ 0.836 µM) | – | – | – |
| CC(C)C[C@@H]1NC(=O)[C@@H](Cc2ccccc2)NC(=O)[C@H](CCN)NC(=O)[C@@H](NC(=O)[C@H](CCN)NC(=O)[C@@H](N)[C@@H](C)O)CCNC(=O)[C@H]([C@@H](C)O)NC(=O)[C@H](CCN)NC(=O)[C@H](CCN)NC1=O [PMBN, polymyxin B nonapeptide, reference compound] (H-T[Dab][Dab][Dab][dF]L[Dab][Dab]T; lactam 3-C) | >32 | >32 | >32 | >32 | – | – | – |
